In article PMC6429055, “Synthesis, Photochemical and In Vitro Cytotoxic Evaluation of New Iodinated Aminosquaraines as Potential Sensitizers for Photodynamic Therapy” (Molecules, 2019):
Where two headings read alike, the source gives them in different places.

What was measured:
[1] = system: MCF-7 (breast adenocarcinoma); test: SRB cytotoxicity, dark and after irradiation (photodynamic treatment); assay type: cell-based; conditions: Homo sapiens, mean ± SD
Experimental: (§1) Stock solutions of the aminosquaraines 5a–e with different concentrations (0.0375 μM, 0.15 μM, 0.6 μM, 6 μM, 12 μM, 25 μM, 50 μM, 500 μM) were prepared using a solution of 3% DMSO in DMEM and kept at−20 °C. Prior to the in vitro assays diluted solutions were prepared with the same solvent to obtain solutions with final concentrations of 0.03 μM, 0.3 μM, 0.6 μM, 1.25 μM, 2.5 μM and 25 μM.
(§2) The cytotoxicity of the squaraine dyes was tested in the dark and under irradiation. For irradiation of the cells a halogen/tungsten lamp (24 V and 250 W, Osram, Carnaxide, Portugal) was used with a fluence rate of […] (measured with an ILT 1400-A radiometer equipped with a SEL033 detector, ILT, Peabody, MA, USA). The cells were irradiated continuously for 30 min. A 3% aqueous solution of K2Cr2O7 was placed between the lamp and the cells as a liquid cut off filter to remove light of wavelength shorter than ~500 nm. The temperature to which the cells were exposed was carefully monitored to guarantee cell viability.
(§3) Four human tumor cell lines were used: MCF-7 (breast adenocarcinoma), NCI-H460 (non-small cell lung carcinoma), HeLa (cervical carcinoma) and HepG2 (hepatocellular carcinoma) from DSMZ (Leibniz-Institut DSMZ-Deutsche Sammlung von Mikroorganismen und Zellkulturen GmbH, Mönchengladbach, Germany). Cells were routinely maintained as adherent cell cultures in RPMI-1640 medium containing 10% heat-inactivated FBS and 2 mM glutamine at […], in a humidified air incubator containing 5% CO2. Each cell line was plated at an appropriate density (7.5 × 10^3 cells/well for MCF-7 and NCI-H460, and 1.0 × 10^4 cells/well for HeLa and HepG2) in 96-well plates, allowed to attach for 24 h and then treated with different concentrations of each squaraine dye. Controls were set with the cells in the absence of the dyes in 3% DMSO in DMEM and in the growth medium only. After the incubation step (24 h), the cells were submitted to the photodynamic treatment for 30 min. Controls in the absence of light were performed on every test. Neither DMSO alone, nor light alone, nor the combination of both induced toxicity on the cells. Then, the growth medium was changed and the cells were incubated for further 24 h. Following this incubation period, the adherent cells were fixed by adding cold 10% TCA (100 µL) and incubated for 60 min at 4 °C. Plates were then washed with deionized water and subsequently dried. SRB solution (0.1% in 1% acetic acid, 100 µL) was then added to each plate well and incubated for 30 min at room temperature. Unbound SRB was removed by washing with 1% acetic acid. Plates were air dried, the bound SRB was solubilized with 10 mM Tris (200 µL) and the absorbance was measured at 540 nm in an ELX800 Microplate Reader (Bio-Tek Instruments Inc., Winooski, VT, USA). The results were expressed in GI50 values, which correspond to the concentration of dye that causes 50% inhibition of cell growth. All the assays were performed in duplicate. Ellipticine was used as standard.

[2] = system: HepG2 (hepatocellular carcinoma); test: as above; assay type: cell-based; conditions: Homo sapiens, mean ± SD
Experimental: as §1, §2, §3

[3] = system: NCI-H460 (non-small cell lung carcinoma); test: as above; assay type: cell-based; conditions: Homo sapiens, mean ± SD
Experimental: as §1, §2, §3

[4] = system: HeLa (cervical carcinoma); test: as above; assay type: cell-based; conditions: Homo sapiens, mean ± SD
Experimental: as §1, §2, §3

[5] = system: HeLa, HepG2, MCF-7 and NCI-H460 cell lines; test: SRB growth inhibition across the human tumor cell line panel, dark vs irradiation (text summaries); assay type: cell-based; conditions: for GI50: Homo sapiens; for Difference between growth inhibition percentages upon illumination and in the dark: dye 0.3 μM, range over the cell lines
Experimental: In this representative example, the growth inhibition in the dark was less than 20% in more than 75% of the assays.
as §1, §2, §3

[6] = Fluorescence quantum yield; assay type: physicochemical; conditions: In CHCl3
Description: As expected, due to the covalent link between iodine and the aminosquaraine, a strong heavy atom effect can be observed in all cases. This effect is emphasized in the case of the bis(hydroxyethyl)amino substituent group (dye 5c).

[7] = Singlet oxygen formation quantum yield (phosphorescence emission at ~1270 nm vs phenazine standard); assay type: physicochemical; conditions: In CHCl3, excitation 337 nm
Experimental: The evaluation of the photosensitizing efficiency of the aminosquaraine dyes was performed in chloroform, by determining the singlet oxygen formation quantum yields (ΦΔ). Phenazine was used as standard. The phosphorescence emission of singlet oxygen generated by the sensitizers at approximately 1270 nm is presented in Figure 2 and the determined quantum yields are summarized in Table 1.
These ΦΔ values were obtained by a simple comparison of the integrated areas determined for the standard and samples, using the same OD at the excitation wavelength. For each determination an average of 100 phosphorescence spectra were used. […] As previously reported, the amino group in the squaric ring enhances singlet oxygen generation efficiency when compared with the unsubstituted zwitterionic dye 3. […] This is related with the intramolecular charge transfer (ICT) mechanism which provides a non-radiative deactivation pathway, therefore decreasing the singlet oxygen formation quantum yields ([44] and references therein).
The singlet oxygen measurement set-up was assembled in our laboratory as previously described. As an excitation source we used a nitrogen laser, excitation wavelength = 337 nm. The detector was an InGaAs CCD (model i-Dus from Andor Technology Limited, Belfast, UK) working at low temperature (−60 °C) coupled to a fixed spectrograph, model Shamrock 163i, also from Andor. Phenazine (standard) was used at O.D. = 0.6 in chloroform. The ΦΔ values were obtained by comparing the total area of the emission spectra for the reference and for each dye under study in the same solvent, with the same optical density at the excitation wavelength. […].

[8] = SRB cytotoxicity in non-tumor porcine liver primary cell culture, dark and after irradiation; assay type: cell-based; conditions: pig, PLP2 porcine liver primary cell culture (non-tumor), non-tumor cells, mean ± SD
Experimental: as §1, §2
A cell culture was prepared from a freshly harvested porcine liver obtained from a local slaughter house, and it was designed as PLP2. Briefly, the liver tissues were rinsed in Hank’s balanced salt solution containing 100 U/mL penicillin and 100 µg/mL streptomycin and divided into 1×1 mm^3 explants to ensure that all liver cells were able to access the nutrients provided by the medium. Some of these explants were placed in 25 cm^2 tissue flasks in DMEM medium supplemented with 10% fetal bovine serum, 2 mM non-essential amino acids and 100 U/mL penicillin, […] streptomycin and incubated at 37 °C with a humidified atmosphere containing 5% CO2. The medium was changed every two days. Cultivation of the cells was continued with direct monitoring every two or three days using a phase contrast microscope. Before confluence was reached, cells were subcultured and plated in 96-well plates at a density of 1.0 × 10^4 cells/well, and cultivated in DMEM medium with 10% FBS, 100 U/mL penicillin and 100 µg/mL streptomycin [47]. The PLP2 cells were incubated with the squaraine dyes and submitted to the two independent processes—dark and irradiation—as described earlier for the human tumor cell lines. The SRB assay was performed according to the procedure previously described. The results were expressed in GI50 values. All the assays were performed in duplicate. Ellipticine was used as standard.

[9] = MCF7, light or radiation study, 0.5 h, Irradiated 30 min, halogen/tungsten lamp >500 nm
[10] = HepG2, light or radiation study, 0.5 h, Irradiated 30 min, halogen/tungsten lamp >500 nm
[11] = NCI-H460, light or radiation study, 0.5 h, Irradiated 30 min, halogen/tungsten lamp >500 nm
[12] = light or radiation study, 0.5 h, Irradiated 30 min, halogen/tungsten lamp >500 nm
[13] = light or radiation study, irradiated, range over cell lines, stated jointly for 5a and 5b, read-out: GI50 upon illumination, range over all the cell lines tested

SMILES | GI50 [1, 9] | GI50 ([1]; MCF7, Dark) | GI50 [2, 10] | GI50 ([2]; HepG2, Dark) | GI50 [3, 11] | GI50 ([3]; NCI-H460, Dark) | GI50 ([4]; Dark) | GI50 [4, 12] | GI50 [5, 13] | Difference between growth inhibition percentages upon illumination and in the dark [5] | ΦF (fluorescence quantum yield) [6] | melting point | Φ∆ (singlet oxygen generation quantum yield) [7] | GI50 ([8]; Dark) | GI50 ([8]; Irradiated 30 min) | GI50 ([5]; HeLa, dark, inactive within the range of concentrations used, read-out: GI50 in the dark, all cell lines with exception of HeLa)
CCN1C(=CC2=C(N)C(=Cc3sc4cc(I)ccc4[n+]3CC)C2=O)Sc2cc(I)ccc21.[I-] [Dye 5a, 2-[2-Amino-3-(3-ethyl-6-iodo-3H-benzothiazol-2-ylidenemethyl)-4-oxocyclobut-2-enylidenemethyl]-3-ethyl-6-iodobenzothiazol-3-ium iodide] | 10 ± 1 nM | 15000 ± 1000 nM | 80 ± 1 nM | 20000 ± 2000 nM | 190 ± 20 nM | 15300 ± 800 nM | 2540 ± 20 nM | 4 ± 0.1 nM | 4 to 190 nM | 46–68% | 0.02 | > 300 °C | 0.22 | 17500 ± 100 nM | 2000 ± 100 nM | 
CCN1C(=CC2=C(NC)C(=Cc3sc4cc(I)ccc4[n+]3CC)C2=O)Sc2cc(I)ccc21.[I-] [Dye 5b, 3-Ethyl-2-[3-(3-ethyl-6-iodo-3H-benzothiazol-2-ylidenemethyl)-2-(methylamino)-4-oxocyclobut-2-enylidenemethyl]-6-iodobenzothiazol-3-ium iodide] | 10 ± 1 nM | 10000 ± 700 nM | 60 ± 1 nM | 15000 ± 2000 nM | 180 ± 70 nM | 8100 ± 900 nM | 1200 ± 100 nM | 11 ± 10 nM | 4 to 190 nM | 43–73% | 0.03 | > 300 °C | 0.26 | 5700 ± 600 nM | 30 ± 1 nM | 
CCN1C(=CC2=C(N(CCO)CCO)C(=Cc3sc4cc(I)ccc4[n+]3CC)C2=O)Sc2cc(I)ccc21.[I-] [Dye 5c, 3-Ethyl-2-{3-(3-ethyl-6-iodo-3H-benzothiazol-2-ylidenemethyl)-2-[bis(2-hydroxy-ethyl)amino]-4-oxocyclobut-2-enylidenemethyl}-6-iodobenzothiazol-3-ium iodide] | 420 ± 60 nM | > 25000 nM | 260 ± 30 nM | 23000 ± 2000 nM | 980 ± 40 nM | 23000 ± 2000 nM | 2000 ± 100 nM | 310 ± 30 nM |  |  | 0.01 | > 300 °C | 0.09 | 22000 ± 900 nM | 440 ± 10 nM | 
CCN1C(=CC2=C(NCCO)C(=Cc3sc4cc(I)ccc4[n+]3CC)C2=O)Sc2cc(I)ccc21.[I-] [Dye 5d, 3-Ethyl-2-{3-(3-ethyl-6-iodo-3H-benzothiazol-2-ylidenemethyl)-2-[(2-hydroxy-ethyl)amino]-4-oxocyclobut-2-enylidenemethyl}-6-iodobenzothiazol-3-ium iodide] | 250 ± 40 nM | > 25000 nM | 380 ± 30 nM | > 25000 nM | 890 ± 10 nM | > 25000 nM | 1800 ± 100 nM | 190 ± 10 nM |  |  | 0.11 | > 300 °C | 0.19 | > 25000 nM | 980 ± 20 nM | > 25000 nM
CCN1C(=CC2=C(N(C)CCO)C(=Cc3sc4cc(I)ccc4[n+]3CC)C2=O)Sc2cc(I)ccc21.[I-] [Dye 5e, 3-Ethyl-2-{3-(3-ethyl-6-iodo-3H-benzothiazol-2-ylidenemethyl)-2-[(2-hydroxy-ethyl)methylamino]-4-oxocyclobut-2-enylidenemethyl}-6-iodobenzothiazol-3-ium iodide] | 230 ± 20 nM | 9600 ± 200 nM | 190 ± 10 nM | 11400 ± 900 nM | 240 ± 30 nM | 13000 ± 1000 nM | 2100 ± 200 nM | 190 ± 20 nM |  |  | 0.09 | > 300 °C | 0.16 | 11900 ± 200 nM | 420 ± 10 nM | 
